Reference: paper PMC7699649 (Communications Biology, 2020)
Non-standard residues stand in square brackets, D forms with d. Residues, ends and D or L forms follow the SMILES beside them.

Legend:
[1] = tested on: EMRSA-15; test: 1H HR-MAS NMR metabolomics of bacterial pellets; format: cell-based, Staphylococcus aureus; settings: EMRSA-15 in MHB, sub-inhibitory challenge v unchallenged; fold change, 1H HR-MAS NMR of pellets
Method: S. aureus EMRSA-15 and P. aeruginosa RP73 were streaked on Mueller Hinton agar plates and RPMI (supplemented with 5% FBS) agar plates and incubated at 37 °C overnight or until single colonies formed. […] Cultures were incubated overnight at 37 °C without shaking and pelleted by centrifugation at 4 °C. The supernatant was removed and filtered separately for spent media analysis, the pellet was briefly washed three times with phosphate buffered saline (PBS). The pellets were frozen in liquid nitrogen and lyophilised overnight in an Alpha 1–2 LD plus freeze dryer (Martin Christ, Germany) and stored at −20 °C until required. Samples were transferred into HR-MAS inserts for use in 4 mm Bruker MAS rotor and resuspended in 30 μl of D2O containing 3-(Trimethylsilyl)propionic-2,2,3,3-D4 acid sodium salt (TMSP-2,2,3,3-D4). The removed supernatant was filtered through 0.2 μm filters and pH adjusted to within 0.3 pH units within the same sample set. The samples were supplemented with 10% D2O containing TMSP-2,2,3,3-D4 and loaded into 5.0 mm NMR tubes.
NMR spectra were collected at 600 MHz for ^1H on a Bruker Avance II spectrometer (Bruker Biospin, Coventry, UK) with a 4 mm HR-MAS probe at 310 K while spinning at 5 kHz. ^1H NMR spectra were acquired using a Carr-Purcell Meiboom-Gill pre-saturation (cpmgpr1d) pulse sequence with a spectrum width of 16.0 ppm and 9615 data points using 64 transients. Free induction decay was multiplied by an exponential function with 0.293 Hz line broadening. 2D ^1H–^1H correlation spectroscopy (COSY) and ^1H–^13C Heteronuclear Single Quantum Correlation (HSQC) experiments were performed on representative datasets using standard Bruker settings.
The spectra were Fourier transformed automatically using standard Bruker commands and manually phased and baseline corrected in Bruker TopSpin 4.0 (Bruker Biospin, Coventry, UK). Spectral pre-processing, cross-validation and multivariate analysis were carried out using the in-house programme developed by Dr Louic Vermeer and MVAPACK, an opensource Octave library for NMR metabolomic data processing and analysis. Pre-processing modifies NMR spectra and reduces the variances and influences which are not of interest and may interfere with data analysis, for example, residual water peak or noise and the TSP reference peak. Initially a principle component analysis was carried out to identify clustering spectra and potential outliers in the data, due to e.g. poor baseline. Data were then subject to probabilistic quotient normalisation before binning and alignment. Orthogonal Projections to Latent Structures Discriminant Analysis analyses were conducted to establish the quality of binary comparisons of the metabolomic data (Supplementary Table 4). […] The Mann–Whitney U test was used to compare means and associated p values were false discovery rate adjusted using the Benjamini-Hochberg method (α = 0.05). Box plots were generated using changes in normalised intensity for each metabolite and significant differences between challenges and controls were determined using a one-way ANOVA. Volcano plots and box plots were generated using in-house software developed for Jupyter Notepad using Python 3.7.0. Metabolites were assigned using the databanks: Chenomx NMR suite software (Chenomx Inc., Canada), Human Metabolome Database, BMRB, E. coli Metabolome Database and AOCS lipid library; and a comparison of chemical shifts to the literature, which was confirmed using 2D NMR spectra. Annotated spectra can be found in the supplementary materials (Supplementary Fig. 15). Metaboanalyst and KEGG were later used to identify key pathways that may be affected by these metabolites.

[2] = in words
[3] = Murine EMRSA-15 lung infection model: body weight; format: in vivo, C57Bl6J mice
[4] = tested on: EMRSA-15; test: Murine EMRSA-15 lung infection model: lung CFU; format: in vivo, C57Bl6J mice
Excerpt: CFUs were quantified in lung homogenates.

For CC(C)C[C@@H](NC(=O)[C@@H](Cc1ccc(O)cc1)NC(=O)[C@@H](Cc1c[nH]cn1)NC(=O)[C@H](NC(=O)[C@@H](CC(C)C)NC(=O)[C@@H](C)NC(=O)[C@@H](C)NC(=O)[C@@H](CCCNC(=N)N)NC(=O)CNC(=O)[C@H](NC(=O)[C@@H](Cc1c[nH]cn1)NC(=O)[C@@H](CCCNC(=N)N)NC(=O)CNC(=O)[C@H](NC(=O)[C@@H](Cc1c[nH]cn1)NC(=O)[C@@H](C)NC(=O)[C@@H](C)NC(=O)[C@@H](CCCNC(=N)N)NC(=O)[C@@H](CCCNC(=N)N)NC(=O)[C@@H](Cc1ccccc1)NC(=O)[C@@H](Cc1ccccc1)NC(=O)[C@@H](CO)NC(=O)CNC(=O)[C@@H](Cc1c[nH]c2ccccc12)NC(=O)CN)C(C)C)C(C)C)[C@H](C)O)C(N)=O [D-pleurocidin-KR] (H-G[dW]G[dS][dF][dF][dR][dR][dA][dA][dH][dV]G[dR][dH][dV]G[dR][dA][dA][dL][dT][dH][dY][dL]-NH2; N-terminus assumed), the “fc 2-aminobutyrate” value [1] was 0.991, the “fc Acetate” value [1] was 1.149 and the “fc Acetyl-Phosphocholine (1)” value [1] was 0.9923. For the same compound, the “fc Acetyl-Phosphocholine (2)” value [1] was 1.003, the “fc Adenosine” value [1] was 1.125 and the “fc Alanine” value [1] was 0.9478. The “fc Aspartate” value [1] was 0.8483, the “fc Betaine” value [1] was 0.9779 and the “fc Choline” value [1] was 1.051. The “fc Citrulline” value [1] was 0.9363, the “fc Glutamate” value [1] was 0.896 and the “fc Glycerol (lipid headgroup) (1)” value [1] was 0.9028. For the same compound, the “fc Glycerol (lipid headgroup) (2)” value [1] was 1.031, the “fc Glycerol (lipid headgroup) (3)” value [1] was 0.9777 and the “fc Isoleucine” value [1] was 1.148. The “fc Lactate” value [1] was 1.293, the “fc Leucine” value [1] was 1.172 and the “fc Lipid -CH=CH-” value [1] was 1.134. The “fc Lipid-CH₃” value [1] was 1.116, the “fc Lysine” value [1] was 1.027 and the “fc N-acetyl-x (1)” value [1] was 0.8941. For the same compound, the “fc N-acetyl-x (2)” value [1] was 1.036, the “fc N-acetyl-x (3)” value [1] was 0.9489 and the “fc Proline” value [1] was 1.056. For the same compound, the “fc Succinate” value [1] was 0.8785, the “fc Unassigned 1.47ppm” value [1] was 0.8868 and the “fc Unassigned 3.4802ppm” value [1] was 0.9293. The “fc Unassigned 8.55ppm” value [1] was 0.9285, the “fc Uracil” value [1] was 1.738 and the “fc Valine” value [1] was 1.029. The “fc ᴅ-alanine (LTA)” value [1] was 1.157, the “solubility in aqueous media” value [2] was “readily soluble” and the “weight loss over the 48-h infection period” value ([3]; cumulative 15 or 1.5 mg/kg/48 h D-pleurocidin-KR, 600 mg/kg vancomycin, i.v.) was “mitigates this weight loss”. For the same compound, the “weight loss over the 48-h infection period” value ([3]; lowest dose of 0.15 mg/kg D-pleurocidin-KR i.v.) was “no observable effect”, the “reduction in lung CFU” value ([4]; cumulative 1.5 mg/kg/48 h i.v. (three doses at 4, 24, 30 h post infection)) was 0.9 log10 and the “reduction in lung CFU” value ([4]; cumulative 15 mg/kg/48 h i.v. (three doses at 4, 24, 30 h post infection)) was 1.1 log10. For the same compound, the “reduction in lung CFU” value ([4]; lowest dose, cumulative 0.15 mg/kg i.v., 48 h) was “did not cause a significant reduction”.
